Laboratory results reported in PubChem BioAssay (NCI).
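Method: 48-hour compound exposure of cells in 96-well plates, five concentrations, linear interpolation of endpoints. The concentration for 50% growth inhibition is given as GI50. TGI denotes the concentration required for complete inhibition of growth.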

Assays:
Assay in all cases: NCI anticancer screen, dose series, 48 h
786-0 renal = test system: 786-0 renal
A549 NSCLC = test system: A549 NSCLC
M14 melanoma = test system: M14 melanoma
NCI-H23 lung = test system: NCI-H23 lung
SF-295 CNS = test system: SF-295 CNS
SK-OV-3 ovarian = test system: SK-OV-3 ovarian
HL-60(TB) leukemia = test system: HL-60(TB) leukemia
IGROV1 ovarian = test system: IGROV1 ovarian
SK-MEL-5 melanoma = test system: SK-MEL-5 melanoma
SR leukemia = test system: SR leukemia

Row | SMILES | TGI (786-0 renal) | TGI (A549 NSCLC) | TGI (M14 melanoma) | TGI (NCI-H23 lung) | TGI (SF-295 CNS) | TGI (SK-OV-3 ovarian) | TGI (HL-60(TB) leukemia) | TGI (IGROV1 ovarian) | TGI (SK-MEL-5 melanoma) | TGI (SR leukemia) | GI50 (A549 NSCLC) | GI50 (HL-60(TB) leukemia) | GI50 (IGROV1 ovarian) | GI50 (NCI-H23 lung) | GI50 (SF-295 CNS) | GI50 (SK-MEL-5 melanoma) | GI50 (SK-OV-3 ovarian) | GI50 (SR leukemia) | GI50 (M14 melanoma)
1 | O=C(O)c1ccc(N/C(=C(/C(Cl)=C(Cl)Cl)[N+](=O)[O-])n2nnc3ccccc32)cc1 | > 100 µM | > 100 µM | > 100 µM | > 100 µM | > 100 µM | > 100 µM | – | – | – | – | – | – | – | – | – | – | – | – | –
2 | c1cc2c(cc1C1=NCCN1)c1cc(C3=NCCN3)ccc1n2CC1CCCCC1 | 96.4 µM | > 100 µM | > 100 µM | 88.9 µM | > 100 µM | 81.8 µM | 59.6 µM | 69.7 µM | 36.2 µM | 38.6 µM | – | – | – | – | – | – | – | – | –
3 | O=C(N/N=C\c1ccc([N+](=O)[O-])s1)c1ccncc1 | 48.8 µM | > 66.3 µM | 25.2 µM | 38.4 µM | 44.5 µM | > 100 µM | > 22.7 µM | 26 µM | 12.8 µM | 12.2 µM | – | – | – | – | – | – | – | – | –
4 | NN/C(=N\S(=O)(=O)c1ccc(S(=O)(=O)c2ccccc2)s1)Nc1ccc(Cl)cc1 | 54.2 µM | > 100 µM | 40.1 µM | 80 µM | > 100 µM | > 100 µM | 62.2 µM | 88.7 µM | 46.2 µM | 44 µM | – | – | – | – | – | – | – | – | –
5 | CCOC(=O)CCC(NC(=O)c1ccc(Nc2nc3ccccc3nc2C(=O)OCC)cc1)C(=O)OCC (stereo not drawn) | 3.46 µM | 14.3 µM | > 100 µM | 17.8 µM | 23 µM | 8.01 µM | > 100 µM | 9.2 µM | > 100 µM | > 100 µM | – | – | – | – | – | – | – | – | –
6 | O=[N+]([O-])C(C=C(n1nnc2ccccc21)n1nnc2ccccc21)=C(n1nnc2ccccc21)n1nnc2ccccc21 | > 100 µM | > 100 µM | > 100 µM | > 100 µM | > 100 µM | > 100 µM | > 100 µM | > 100 µM | – | 66.6 µM | – | – | – | – | – | – | – | – | –
7 | O=C1N(c2ccccc2)C(=S)/C(=C/c2ccc(Cl)cc2)N1c1ccc(Cl)cc1 | 64.2 µM | > 100 µM | > 100 µM | > 100 µM | > 100 µM | 95.7 µM | 74.4 µM | > 100 µM | > 100 µM | 15.5 µM | – | – | – | – | – | – | – | – | –
8 | C=C(C)[C@@H]1CC[C@]2(C(=O)NC(C)=O)CC[C@]3(C)[C@H](CC[C@@H]4[C@@]5(C)CCCNC(C)(C)[C@@H]5CC[C@]43C)[C@@H]12 | – | 3.33 µM | – | 3.51 µM | 3.24 µM | 3.22 µM | 3.2 µM | 3.15 µM | 3.15 µM | 3.07 µM | 1.61 µM | 1.35 µM | 1.69 µM | 1.76 µM | 1.81 µM | 1.76 µM | 1.63 µM | 0.839 µM | –
9 | O=c1cc(N2CCCC2)[nH]c(=O)n1-c1ccc(Cl)cc1 | > 100 µM | > 100 µM | > 100 µM | > 100 µM | > 100 µM | > 100 µM | > 100 µM | > 100 µM | – | – | – | – | – | – | – | – | – | – | –
10 | Cc1c(O)c(=O)ccn1CCc1ccc(O)cc1 | 27.8 µM | > 100 µM | 53 µM | > 100 µM | > 100 µM | > 100 µM | 81.3 µM | – | 51.7 µM | > 100 µM | – | – | – | – | – | – | – | – | –
11 | COc1ccc(-n2cnc3c(NC(Cc4ccccc4)C(=O)O)ncnc32)cc1 (stereo not drawn) | > 100 µM | > 100 µM | > 100 µM | > 100 µM | > 100 µM | > 100 µM | – | > 100 µM | > 100 µM | > 100 µM | – | – | – | – | – | – | – | – | –
12 | C=CCNC(=S)/N=C/C(C(=O)Nc1ccccc1C)=C(\C)O | > 100 µM | > 100 µM | > 100 µM | > 100 µM | > 100 µM | > 100 µM | > 100 µM | > 100 µM | > 100 µM | – | – | – | – | – | – | – | – | – | –
13 | C=C(C)[C@@H]1CC[C@]2(CO)CC[C@]3(C)[C@H](CC[C@@H]4[C@@]5(C)CC[C@H](NCO)C(C)(C)[C@@H]5CC[C@]43C)[C@@H]12 | – | 1.73 µM | – | 1.67 µM | 1.58 µM | 1.61 µM | 2.32 µM | 1.68 µM | 1.59 µM | – | 0.885 µM | 1 µM | 0.899 µM | 0.869 µM | 0.873 µM | 0.87 µM | 0.87 µM | – | –
14 | CC(C)=NOC(=O)Nc1cccc2c1OCO2 | > 100 µM | > 100 µM | > 100 µM | > 100 µM | > 100 µM | > 100 µM | – | > 100 µM | > 100 µM | – | – | – | – | – | – | – | – | – | –
15 | COC(=O)c1cc(/C=C\c2cc(OC)ccc2OC)ccc1OC | > 100 µM | > 100 µM | 84.2 µM | > 100 µM | > 100 µM | 83.6 µM | – | 42.2 µM | 34.5 µM | > 100 µM | – | – | – | – | – | – | – | – | –
16 | O=C1CC(c2ccccc2)S(=O)c2ccccc2N1 (stereo not drawn) | > 100 µM | > 100 µM | > 100 µM | > 100 µM | – | > 100 µM | > 100 µM | > 100 µM | > 100 µM | > 100 µM | – | – | – | – | – | – | – | – | –
17 | CCN(CC)CCO[Si](OCCN(CC)CC)(OCCN(CC)CC)OCCN(CC)CC | – | > 100 µM | > 100 µM | > 100 µM | > 100 µM | > 100 µM | – | > 100 µM | > 100 µM | > 100 µM | – | – | – | – | – | – | – | – | –
18 | FC(F)(F)c1ccc2nc(Sc3ccc4ccccc4c3)cnc2c1 | > 100 µM | > 100 µM | > 100 µM | > 100 µM | > 100 µM | > 100 µM | > 100 µM | > 100 µM | > 100 µM | – | – | – | – | – | – | – | – | – | –
19 | COc1ccc(-c2n/c(=C\c3c(O)[nH]c4ccccc34)cc3c2=Nc2ccccc2-3)cc1 | – | 4.31 µM | 2.43 µM | 3.09 µM | – | 35.6 µM | 4.08 µM | 47.7 µM | 2.64 µM | 3.15 µM | 1.79 µM | 1.9 µM | 15.3 µM | 1.55 µM | – | 1.36 µM | 9.19 µM | 0.518 µM | 1.15 µM
20 | O=c1[nH]c2ccc([N+](=O)[O-])cc2nc1/C=C(\O)c1ccccc1 | 20.6 µM | > 100 µM | > 100 µM | 73.3 µM | > 100 µM | 33.7 µM | – | > 100 µM | > 100 µM | > 100 µM | – | – | – | – | – | – | – | – | –
